Results published in patent US7576059B2, “Peptide derivatives” (Novo Nordisk A/S, priority 1995, dated 2009).
Residues, ends and D or L forms follow the SMILES beside them.

Test: Determination of lipophilicity relative to human insulin (k′rel) by RP-HPLC
Type: physicochemical
Conditions: pH 7.3
Procedure: The lipophilicity of peptides and peptide derivatives relative to human insulin, k′rel, was measured on a LiChrosorb RP18 (5 μm, 4×250 mm) HPLC column by isocratic elution at 40° C. using mixtures of A) 0.1 M sodium phosphate buffer, pH 7.3, containing 10% acetonitrile, and B) 50% acetonitrile in water as eluents. The elution was monitored by following the UV absorption of the eluate at 214 nm. Void time, t0, was found by injecting 0.1 mM sodium nitrate. Retention time for human insulin, tinsulin, was adjusted to at least 2t0 by varying the ratio between the A and B solutions. k′rel=(tderivative−t0)/(tinsulin−t0).

lipophilicity relative to human insulin, k′rel | Structure (SMILES) | lipophilicity relative to human insulin, k′rel (LiChrosorb RP18 HPLC, isocratic, 40° C., k′rel=(tderivative−t0)/(tinsulin−t0))
2.3 | CCCC[C@H](NC=O)C(=O)N[C@@H](CC(C)C)C(=O)N[C@@H](Cc1ccccc1)C(=O)N[C@@H](CCCC)C(=O)N[C@@H](Cc1ccc(O)cc1)C(=O)N[C@@H](CCCCN)C(=O)O [For-Nle-Leu-Phe-Nle-Tyr-Lys-OH] (HELM PEPTIDE1{[O=C[*:2]].[Nle].L.F.[Nle].Y.K}$$$$V2.0) | –
– | CC(C)C[C@H](NC(=O)[C@H](Cc1ccccc1)NC(=O)CNC(=O)[C@@H](C)NC(=O)[C@@H](N)Cc1ccc(O)cc1)C(=O)N[C@@H](CCCCN)C(=O)O [H-Tyr-D-Ala-Gly-Phe-Leu-Lys-OH] (HELM PEPTIDE1{Y.[dA].G.F.L.K}$$$$V2.0) | 3.0×10^−3
